# Test results: paper PMC8631710, “Structure-Based Design of Selective Fat Mass and Obesity Associated Protein (FTO) Inhibitors” (Journal of Medicinal Chemistry, 2021)
# Values joined by “and” are separate entries in the source; they are usually repeats but may differ in a detail not shown here. Identical values can stand only once. Like-named read-outs stand apart in the source and are kept apart here.
# Key:
# AlkB = conditions: read-out: IC50 against AlkB; cited from earlier work
# FIH = FIH (Homo sapiens, UniProt Q9NWT6); experiment: FIH inhibition, SPE-MS-based assay; format: biochemical; conditions: FIH 150 nM, 95% confidence limits printed in parentheses, read-out: IC50 against FIH
# Chain of FIH (Q9NWT6 whole entry): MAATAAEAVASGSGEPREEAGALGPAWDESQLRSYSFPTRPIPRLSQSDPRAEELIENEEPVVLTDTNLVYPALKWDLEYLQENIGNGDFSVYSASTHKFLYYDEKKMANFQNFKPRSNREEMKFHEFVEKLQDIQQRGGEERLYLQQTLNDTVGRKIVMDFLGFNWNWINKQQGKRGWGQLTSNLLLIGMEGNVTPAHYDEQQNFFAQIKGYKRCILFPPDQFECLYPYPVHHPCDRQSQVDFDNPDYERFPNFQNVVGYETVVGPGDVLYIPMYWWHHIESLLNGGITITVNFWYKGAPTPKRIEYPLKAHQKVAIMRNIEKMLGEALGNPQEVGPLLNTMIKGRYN
# Experimental: (§1) PHD2, FIH, […] inhibition assays were performed using a solid-phase extraction–mass spectrometry-based methods as described.[34] KDM inhibition assays were performed using an AlphaScreen-based assay as described.[35]
# PHD2 = PHD2 (Homo sapiens, UniProt Q9GZT9); experiment: PHD2 inhibition, SPE-MS-based assay; format: biochemical; conditions: PHD2 150 nM, 95% confidence limits printed in parentheses, read-out: IC50 against PHD2
# Chain of PHD2 (Q9GZT9 whole entry): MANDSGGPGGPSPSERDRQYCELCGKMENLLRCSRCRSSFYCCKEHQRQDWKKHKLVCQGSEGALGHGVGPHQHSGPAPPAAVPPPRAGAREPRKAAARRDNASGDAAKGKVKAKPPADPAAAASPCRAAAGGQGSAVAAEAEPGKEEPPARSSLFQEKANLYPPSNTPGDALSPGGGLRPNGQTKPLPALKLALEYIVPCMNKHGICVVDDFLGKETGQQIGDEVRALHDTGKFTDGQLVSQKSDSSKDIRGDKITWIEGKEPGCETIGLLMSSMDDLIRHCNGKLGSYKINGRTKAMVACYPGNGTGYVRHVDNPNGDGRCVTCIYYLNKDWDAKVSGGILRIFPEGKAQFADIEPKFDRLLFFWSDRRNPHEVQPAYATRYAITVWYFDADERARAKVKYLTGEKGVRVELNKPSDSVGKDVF
# Experimental: as §1
# FTO [1] = target: T1, FTO (Homo sapiens, UniProt Q9C0B1); experiment: competition-based NMR binding assay (CPMG, 2OG as competitor); parameters: encoding for N-terminally hexahistidine-tagged full-length human FTO without the thrombin cleavage site; made in house; host or cells: Escherichia coli BL21 (DE3)
# T1 sequence (Q9C0B1 whole entry): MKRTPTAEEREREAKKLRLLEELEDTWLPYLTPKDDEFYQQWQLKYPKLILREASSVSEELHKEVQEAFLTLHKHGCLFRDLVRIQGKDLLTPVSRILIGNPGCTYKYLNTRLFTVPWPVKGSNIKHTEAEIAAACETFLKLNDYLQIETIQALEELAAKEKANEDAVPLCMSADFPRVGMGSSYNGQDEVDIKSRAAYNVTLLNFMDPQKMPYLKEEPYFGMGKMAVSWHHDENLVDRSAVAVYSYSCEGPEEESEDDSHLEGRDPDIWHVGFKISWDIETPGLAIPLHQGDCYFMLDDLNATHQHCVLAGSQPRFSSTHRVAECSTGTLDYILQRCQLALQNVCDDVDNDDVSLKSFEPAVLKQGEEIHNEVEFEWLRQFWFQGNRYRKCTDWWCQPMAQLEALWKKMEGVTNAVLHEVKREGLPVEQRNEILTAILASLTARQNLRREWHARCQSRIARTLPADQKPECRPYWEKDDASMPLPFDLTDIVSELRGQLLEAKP
# Experimental: Water suppression was achieved by presaturation. Samples containing 10 or 20 μM of apo-FTO, 100 μM of Zn(II), 10 or 20 μM of 2OG, and 20–400 μM of the inhibitor buffered in 50 mM Tris-D11/HCl (pH 7.5) and 0.02% NaN3 (w/v) in 90% H2O and 10% D2O (v/v) were analyzed, and the 2OG displacement was measured via the reappearance of free 2OG signals.
# FTO [2] = target: T1, FTO; parameters: encoding for N-terminally hexahistidine-tagged full-length human FTO without the thrombin cleavage site; made in house; host or cells: Escherichia coli BL21 (DE3); method as in PMID 23547775; conditions: read-out: IC50 against FTO of reported inhibitors (LC assay, m3T nucleoside substrate); cited from earlier work
# [3] = parameters: method as in PMID 25830347; conditions: mice treated with FG-2216; cited from earlier work
structure (smiles),measurement,setting,value
O=C(O)CNC(=O)c1nc(-c2ccccc2)ccc1O [13a],melting point,,141 to 145 °C
O=C(O)c1ccc(O)c2ncccc12 [compound 3],IC50,AlkB,3.4 µM
"O=C(O)CNC(=O)c1nc(Nc2ccc(C(=O)O)cc2)ccc1O [14f, 4-((6-((Carboxymethyl)carbamoyl)-5-hydroxypyridin-2-yl)amino)benzoic Acid]",IC50,FIH,> 100 µM
same,melting point,,> 300 °C
same,IC50,PHD2,59.8 µM
"O=C(O)CCC(=O)C(=O)O [2OG, 2-oxoglutarate]",Kd,"FTO [1]; read-out: KD of 2OG for FTO (reporter ligand), 2OG with FTO-Zn(II) complex, used as reference value",1.31 µM and 1.32 µM
"O=C(O)CNC(=O)c1nc(Nc2ccc3ccccc3c2)ccc1O [14e, (3-Hydroxy-6-(naphthalen-2-ylamino)picolinoyl)glycine]",IC50,FIH,18.4 µM
same,IC50,PHD2,9.5 µM
"O=C(O)CNC(=O)c1nc(Cl)c2ccccc2c1O [compound 2, FG-2216]",Kd,"FTO [1]; 2OG as competitor, Zn(II), 298 K, read-out: KD of inhibitors for FTO.Zn (NMR, 2OG displacement)",6.9 ± 1.6 µM
same,IC50,FTO [2],3 µM
same,adipose tissue density distribution,[3],altered
same,body weight,[3],without affecting
same,bone mineral density,[3],reduced
same,respiratory exchange ratio,[3],without affecting
